From patent US20170320870A1 (Medical Research Council Technology, priority 2009, published 2017)

Target: T1, LRRK2 wild type (recombinant human, catalytic domain amino acids 970-2527, GST-tagged) (Homo sapiens, UniProt Q5S007)
T1 construct: The wild type used was recombinant human, catalytic domain (amino acids 970-2527) GST-tagged, expressed in insect cells; GST; purchased Invitrogen Corporation PV4873; host or cells: insect cells
Experiment: LRRK2 wild type protein kinase assay ([γ-33P] ATP, peptide substrate […]), IC50
Assay type: biochemical
Conditions: LRRK2 (variant not given); read-out: Potency score, LRRK2 IC50
In short: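 IC50 derived from duplicate 10-point titrations, with 33P incorporation into a 100 μM peptide counted after P81 filter capture. Roughly 5 nM unactivated kinase reacted with Mg/[γ-33P]ATP for 180 min at room temperature (~21 °C), pH 7.5 Tris buffer containing 10 mM MgCl2, EGTA and DTT; acid-quenched.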

T1 sequence (Q5S007 970-2527): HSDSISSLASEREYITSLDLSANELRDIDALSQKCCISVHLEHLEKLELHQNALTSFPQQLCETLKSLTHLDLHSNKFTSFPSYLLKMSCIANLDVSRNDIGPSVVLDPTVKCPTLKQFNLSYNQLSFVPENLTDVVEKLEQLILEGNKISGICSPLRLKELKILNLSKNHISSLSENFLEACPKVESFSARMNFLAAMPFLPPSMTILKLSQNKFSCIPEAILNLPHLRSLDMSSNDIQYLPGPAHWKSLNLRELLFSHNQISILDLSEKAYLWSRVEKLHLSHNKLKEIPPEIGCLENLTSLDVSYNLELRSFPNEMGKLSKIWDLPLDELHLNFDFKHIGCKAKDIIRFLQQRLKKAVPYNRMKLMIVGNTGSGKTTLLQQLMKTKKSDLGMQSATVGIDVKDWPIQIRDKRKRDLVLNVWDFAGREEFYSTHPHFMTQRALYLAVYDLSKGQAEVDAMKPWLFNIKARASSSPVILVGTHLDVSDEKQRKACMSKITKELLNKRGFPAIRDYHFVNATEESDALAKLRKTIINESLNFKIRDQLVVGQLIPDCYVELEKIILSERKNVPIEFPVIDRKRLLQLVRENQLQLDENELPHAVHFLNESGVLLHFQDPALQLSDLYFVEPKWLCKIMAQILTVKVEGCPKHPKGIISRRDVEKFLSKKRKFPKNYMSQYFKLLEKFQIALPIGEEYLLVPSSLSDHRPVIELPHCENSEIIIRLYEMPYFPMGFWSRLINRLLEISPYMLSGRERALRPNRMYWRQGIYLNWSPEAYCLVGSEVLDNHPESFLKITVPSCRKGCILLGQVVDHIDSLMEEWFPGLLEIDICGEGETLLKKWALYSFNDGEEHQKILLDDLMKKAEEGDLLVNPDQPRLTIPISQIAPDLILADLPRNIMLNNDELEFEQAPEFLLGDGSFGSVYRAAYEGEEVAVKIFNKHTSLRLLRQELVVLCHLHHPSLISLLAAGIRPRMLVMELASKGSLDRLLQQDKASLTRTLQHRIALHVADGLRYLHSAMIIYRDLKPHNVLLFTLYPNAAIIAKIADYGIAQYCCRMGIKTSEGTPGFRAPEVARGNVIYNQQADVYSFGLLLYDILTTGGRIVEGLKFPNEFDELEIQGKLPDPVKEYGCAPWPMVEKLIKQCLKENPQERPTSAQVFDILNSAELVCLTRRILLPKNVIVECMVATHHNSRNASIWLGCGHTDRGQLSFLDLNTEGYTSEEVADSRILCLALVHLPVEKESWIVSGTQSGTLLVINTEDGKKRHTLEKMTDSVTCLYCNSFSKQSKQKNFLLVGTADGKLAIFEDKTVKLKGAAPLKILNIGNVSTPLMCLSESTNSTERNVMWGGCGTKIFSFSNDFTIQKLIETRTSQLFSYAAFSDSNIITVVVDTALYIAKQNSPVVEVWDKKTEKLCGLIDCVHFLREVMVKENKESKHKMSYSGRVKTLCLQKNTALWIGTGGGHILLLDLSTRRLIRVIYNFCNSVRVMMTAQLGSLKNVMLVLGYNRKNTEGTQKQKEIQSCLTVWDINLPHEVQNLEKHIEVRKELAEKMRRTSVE

Row | IC50 [nM] | SMILES
1 | 100 to 1000 | Cc1n[nH]c2ccnc(OCC3CC3)c12 [Example 123, 4-Cyclopropyl-methoxy-3-methyl-1H-pyrazolo [4,3-c]pyridine]
2 | 100 to 1000 | CCOc1nccc2[nH]nc(C)c12 [Example 124, 4-Ethoxy-3-methyl-1H-pyrazolo[4,3-c]pyridine]
3 | 1000 to 10000 | Cc1n[nH]c2ccnc(CC3CCCCC3)c12 [Example 126, 4-Cyclohexylmethyl-3-methyl-1H-pyrazolo[4,3-c]pyridine]
4 | 100 to 1000 | Cc1n[nH]c2ccnc(C3CCCC3)c12 [Example 127, 4-Cyclopentyl-3-methyl-1H-pyrazolo[4,3-c]pyridine]
5 | 1000 to 10000 | Cc1n[nH]c2ccnc(CCC(C)C)c12 [Example 128, 3-Methyl-4-(3-methyl-butyl)-1H-pyrazolo[4,3-c]pyridine]
6 | 100 to 1000 | Cc1n[nH]c2ccnc(-c3nccs3)c12 [Example 130, 3-Methyl-4-thiazol-2-yl-1H-pyrazolo[4,3-c]pyridine]
7 | 1000 to 10000 | Cc1n[nH]c2ccnc(-c3cnccn3)c12 [Example 131, 3-Methyl-4-pyrazin-2-yl-1H-pyrazolo[4,3-cc]pyridine]
8 | < 100 | Brc1n[nH]c2ccnc(NC3CCCCC3)c12 [Example 134, (3-Bromo-1H-pyrazolo[4,3-c]pyridin-4-yl)-cyclohexyl-amine]
9 | 100 to 1000 | c1ccc(-c2n[nH]c3ccnc(NC4CCCCC4)c23)cc1 [Example 136, Cyclohexyl-(3-phenyl-1H-pyrazolo[4,3-c]pyridin-4-yl)-amine]
10 | 1000 to 10000 | CC(=O)Nc1cccc(-c2n[nH]c3ccnc(NC4CCCCC4)c23)c1 [Example 137, N-[3-(4-Cyclohexylamino-1H-pyrazolo[4,3-c]pyridin-3-yl)-phenyl]-acetamide]
11 | 100 to 1000 | COc1ccc(-c2n[nH]c3ccnc(NC4CCCCC4)c23)cc1Cl [Example 140, [3-(3-Chloro-4-methoxy-phenyl)-1H-pyrazolo[4,3-c]pyridin-4-yl]-cyclohexyl-amine]
12 | 100 to 1000 | COc1ccc(-c2n[nH]c3ccnc(NC4CCCCC4)c23)cc1 [Example 141, Cyclohexyl-[3-(4-methoxy-phenyl)-1H-pyrazolo[4,3-c]pyridin-4-yl]-amine]
13 | 100 to 1000 | Clc1ccccc1-c1n[nH]c2ccnc(NC3CCCCC3)c12 [Example 143, [3-(2-Chloro-phenyl)-1H-pyrazolo[4,3-c]pyridin-4-yl]-cyclohexyl-amine]
14 | 100 to 1000 | Clc1ccc(-c2n[nH]c3ccnc(NC4CCCCC4)c23)cc1 [Example 145, [3-(4-Chloro-phenyl)-1H-pyrazolo[4,3-c]pyridin-4-yl]-cyclohexyl-amine]
15 | 100 to 1000 | Cc1ccc(-c2n[nH]c3ccnc(NC4CCCCC4)c23)cc1 [Example 148, Cyclohexyl-(3-p-tolyl-1H-pyrazolo[4,3-c]pyridin-4-yl)-amine]
16 | 1000 to 10000 | FC(F)(F)Oc1ccccc1-c1n[nH]c2ccnc(NC3CCCCC3)c12 [Example 151, Cyclohexyl-[3-(2-trifluoromethoxy-phenyl)-1H-pyrazolo[4,3-c]pyridin-4-yl]-amine]
17 | 1000 to 10000 | O=C(c1cccc(-c2n[nH]c3ccnc(NC4CCCCC4)c23)c1)N1CCOCC1 [Example 153, [3-(4-Cyclohexylamino-1H-pyrazolo[4,3-c]pyridin-3-yl)-phenyl]-morpholin-4-yl-methanone]
18 | 100 to 1000 | c1cc2[nH]nc(-c3ccc(N4CCOCC4)nc3)c2c(NC2CCCCC2)n1 [Example 154, Cyclohexyl-[3-(6-morpholin-4-yl-pyridin-3-yl)-1H-pyrazolo[4,3-c]pyridin-4-yl]-amine]
19 | 1000 to 10000 | FC(F)(F)c1ccc(-c2n[nH]c3ccnc(NC4CCCCC4)c23)cc1 [Example 157]
20 | 1000 to 10000 | Fc1cccc(-c2n[nH]c3ccnc(NC4CCCCC4)c23)c1F [Example 159]

The next lines start with the molecule.

Row | SMILES | IC50 [nM]
21 | CC[C@@H](C)Oc1nccc2[nH]nc(C)c12 [Example 122, 4-((R)-sec-Butoxy)-3-methyl-1H-pyrazolo[4,3-c] pyridine] | < 100
22 | Cc1n[nH]c2ccnc(Cc3ccccc3)c12 [Example 125, 4-Benzyl-3-methyl-1H-pyrazolo[4,3-c]pyridine] | 1000 to 10000
23 | Cc1n[nH]c2ccnc(-c3ncco3)c12 [Example 129, 3-Methyl-4-oxazol-2-yl-1H-pyrazolo[4,3-c]pyridine] | 1000 to 10000
24 | Fc1cccc(Nc2nccc3[nH]ncc23)c1 [Example 132, (3-Fluoro-phenyl)-(1H-pyrazolo[4,3-c]pyridin-4-yl)-amine] | 100 to 1000
25 | c1cc2[nH]ncc2c(NC2CCCCC2)n1 [Example 133, Cyclohexyl-(1H-pyrazolo[4,3-c]pyridin-4-yl)-amine] | 1000 to 10000
26 | c1cncc(-c2n[nH]c3ccnc(NC4CCCCC4)c23)c1 [Example 135, Cyclohexyl-(3-pyridin-3-yl-1H-pyrazolo[4,3-c]pyridin-4-yl)-amine] | 100 to 1000
27 | c1cc2[nH]nc(C3CC3)c2c(NC2CCCCC2)n1 [Example 138, Cyclohexyl-(3-cyclopropyl-1H-pyrazolo[4,3-c]pyridin-4-yl)-amine] | 100 to 1000
28 | CNC(=O)c1ccc(-c2n[nH]c3ccnc(NC4CCCCC4)c23)cc1 [Example 139, 4-(4-Cyclohexylamino-1H-pyrazolo[4,3-c]pyridin-3-yl)-N-methyl-benzamide] | 1000 to 10000
29 | COc1ccc(-c2n[nH]c3ccnc(NC4CCCCC4)c23)cn1 [Example 142, Cyclohexyl-[3-(6-methoxy-pyridin-3-yl)-1H-pyrazolo[4,3-c]pyridin-4-yl]-amine] | 1000 to 10000
30 | Clc1cccc(-c2n[nH]c3ccnc(NC4CCCCC4)c23)c1 [Example 144, [3-(3-Chloro-phenyl)-1H-pyrazolo[4,3-c]pyridin-4-yl]-cyclohexyl-amine] | 100 to 1000
31 | COc1cccc(-c2n[nH]c3ccnc(NC4CCCCC4)c23)c1 [Example 146, Cyclohexyl-[3-(3-methoxy-phenyl)-1H-pyrazolo[4,3-c]pyridin-4-yl]-amine] | 100 to 1000
32 | c1cc2[nH]nc(-c3ccoc3)c2c(NC2CCCCC2)n1 [Example 147] | 100 to 1000
33 | Cc1cccc(-c2n[nH]c3ccnc(NC4CCCCC4)c23)c1 [Example 149, Cyclohexyl-(3-m-tolyl-1H-pyrazolo[4,3-c]pyridin-4-yl)-amine] | 100 to 1000
34 | N#Cc1cccc(-c2n[nH]c3ccnc(NC4CCCCC4)c23)c1 [Example 150, 3-(4-Cyclohexylamino-1H-pyrazolo[4,3-c]pyridin-3-yl)-benzonitrile] | 100 to 1000
35 | c1cc2[nH]nc(-c3ccc(N4CCOCC4)cc3)c2c(NC2CCCCC2)n1 [Example 152, Cyclohexyl-[3-(4-morpholin-4-yl-phenyl)-1H-pyrazolo[4,3-c]pyridin-4-yl]-amine] | 100 to 1000
36 | c1cc(-c2n[nH]c3ccnc(NC4CCCCC4)c23)cc(-n2cccn2)c1 [Example 155] | 100 to 1000
37 | N#CCc1ccc(-c2n[nH]c3ccnc(NC4CCCCC4)c23)cc1 [Example 156, [4-(4-Cyclohexylamino-1H-pyrazolo[4,3-c]pyridin-3-yl)-phenyl]-acetonitrile] | 100 to 1000
38 | N#Cc1ccc(-c2n[nH]c3ccnc(NC4CCCCC4)c23)cc1 [Example 158] | 1000 to 10000
39 | c1cc2[nH]nc(-c3cnc(N4CCOCC4)nc3)c2c(NC2CCCCC2)n1 [Example 160, Cyclohexyl-[3-(2-morpholin-4-yl-pyrimidin-5-yl)-1H-pyrazolo[4,3-c]pyridin-4-yl]-amine] | 100 to 1000
